One test deals with T1, ChemR23 (Homo sapiens, UniProt Q99788).
T1 sequence (Q99788 1-373): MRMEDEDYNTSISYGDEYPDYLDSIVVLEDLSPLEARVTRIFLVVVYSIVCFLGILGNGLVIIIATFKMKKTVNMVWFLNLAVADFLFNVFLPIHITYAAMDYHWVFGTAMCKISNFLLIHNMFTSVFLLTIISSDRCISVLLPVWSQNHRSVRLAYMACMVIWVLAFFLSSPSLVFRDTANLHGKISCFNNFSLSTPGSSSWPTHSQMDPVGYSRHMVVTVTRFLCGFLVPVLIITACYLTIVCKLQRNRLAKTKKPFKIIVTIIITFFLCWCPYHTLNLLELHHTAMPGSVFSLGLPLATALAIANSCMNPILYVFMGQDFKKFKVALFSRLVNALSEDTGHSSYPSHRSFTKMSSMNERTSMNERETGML
As to the kind of experiment: Hit Hunter cAMP Hunter assay, human ChemR23. In kind it is cell-based. The procedure: The DiscoveRx PathHunter™ eXpress GPCR activity assay was employed to test agonist and antagonist activities of the chemerin peptides against the GPCRs ChemR23 and GPR1. Two assay formats were tested, the PathHunter β-Arrestin assay and the Hit Hunter cAMP Hunter assay.
The protocol used was a standard protocol employed by DiscoveRx PathHunter™ profiling service. […] Once it was established that the cells were healthy and growing normally, cells were passaged from flasks using cell dissociation reagent buffer and seeded into white walled clear bottom 384-well microplates for compound profiling. For profiling, cells were seeded at a density of 10000 cells per well in a total volume of 20 μL and were allowed to adhere and recover overnight prior to compound addition. Cells were treated the following day using the protocols shown below. cAMP modulation was determined using the DiscoveRx HitHunter cAMP XS+ assay.
For profiling compound in agonist mode, the cells were incubated in the presence of compound at 37° C. for 30 minutes.
EC80 agonist concentration was determined directly from agonist dose curve.
Microplates were read following signal generation with a PerkinElmer Envision™ instrument for chemiluminescent signal detection.
Dose curves in the presence and absence of compound were plotted using GraphPad Prism or Activity Base.

Test [1] has as its system IFNγ/LPS stimulated human macrophages. The experiment in a line: Cytokine secretion by IFNγ/LPS stimulated human macrophages (Luminex). In kind it is cell-based. From the text:
In this example, the ability of human chemerin C15 to inhibit secretion of cytokines from activated human macrophages was examined. For this experiment, the activity of the human chemerin C15 peptide […] (SEQ ID NO: 1) was compared to that of the human chemerin C17 peptide […] (SEQ ID NO: 25). The C15 and C17 peptides were synthesized by solid phase synthesis using BOP coupling of FMOC protected amino acids with final cleavage from the resin with TFA. Peptides were purified by reverse phase C18 chromatography using a water/acetonitrile gradient.
Human macrophages were derived from human CD14+ monocytes obtained from 3 donors. On Day 1, the isolated monocytes were thawed and seeded in triplicate for each group in 1 ml RPMI 1640 GlutaMAX™ media (supplemented with 10% FBS, 100 U/ml penicillin, 100 μg/ml streptomycin, 0.05 μM mercaptoethanol, 1% NEAA and 1% sodium pyruvate) per well of a 24 well cell culture dish at a cell concentration of 5×10^5 cells/ml. M-CSF was added to each well to give a final concentration of 25 ng/ml. Cells were grown for 7 days at 37° C. with 5% CO2 to differentiate the cells into macrophages. Media and M-CSF were replaced after 4 days.
Following differentiation, the media containing M-CSF was removed. The cells were washed and vehicle control, dexamethasone, C15 or C17 were added to the appropriate wells. The test peptides were dissolved in 50% DMSO/water prior to addition. C-15 (MW 1669; 16.7 mg/ml) was added to a final concentration of […] and C17 (MW 1904; 19.0 mg/ml) was added to a final concentration of 1 μM. Dexamethasone was added to a final concentration of 1 μM. Following addition to the wells, the plates were incubated at 37° C. with 5% CO2 for 1 hour. An equal volume of complete media was added to the non-treated wells. Control or test treatments were maintained at the correct concentration throughout the assay.
IFNγ (final concentration 20 ng/ml) was then added to the appropriate wells. Following IFNγ addition, the plates were incubated at 37° C. with 5% CO2 for 4 hours. The concentration of vehicle control, test treatments or dexamethasone was maintained during IFNγ stimulation. LPS (final concentration 10 ng/ml) was then added to the appropriate wells. Following LPS addition, the plates were incubated at 37° C. with 5% CO2 for 15 hours. After 6 hours, ˜60 μl of culture supernatant was removed from all wells and stored at −80° C. for analysis. The concentration of vehicle control, test treatments or dexamethasone was maintained during LPS stimulation.
At 15 hours post LPS stimulation, the remaining cell culture supernatant was harvested and stored at −80° C. until assayed. The concentration of vehicle control, test treatments or dexamethasone was maintained until culture termination.
Cell culture supernatants taken at 6 hours and 15 hours post LPS addition were assayed for the production of RANTES, TNFα, IL-1β, IL-6, IL-10, IL-12p40 (subunit common to IL-12 and IL-23) and IL-15 (negative control) using Luminex® technology (Procarta human cytokine kit; Panomics) following the manufacturer's instructions.
In this experiment, the importance of the FYFP motif (SEQ ID NO: 2) in the human chemerin C15 peptide on anti-inflammatory activity was examined. The ability of the human chemerin C15 peptide […] (SEQ ID NO: 1) was compared to that of a substituted chemerin C15 peptide having the amino acid sequence […] (SEQ ID NO: 27), where the second phenylalanine in the peptide is modified to alanine. The experiment was performed as described in Example 1. 0.1 pM 0.5 pM and 1 pM concentrations of the C15 and C15 mutant peptides were tested. Cytokine expression was determined as described in Example 1.

Where [2] appears, read: Example 3, 0.1 pM 0.5 pM and 1 pM tested, FIG. 3.

Peptide text beside a SMILES is read from it.

For orientation: IC50 means the midpoint of a concentration-inhibition curve. Low values mean higher potency, high ones lower potency. `C[C@H](N)C(=O)NCC(=O)N[C@@H](CCC(=O)O)C(=O)N[C@@H](CC(=O)O)C(=O)N1CCC[C@H]1C(=O)N[C@@H](Cc1c[nH]cn1)C(=O)N[C@@H](CO)C(=O)N[C@@H](Cc1ccccc1)C(=O)N[C@@H](Cc1ccc(O)cc1)C(=O)N[C@@H](Cc1ccccc1)C(=O)N1CCC[C@H]1C(=O)NCC(=O)N[C@@H](CCC(N)=O)C(=O)N[C@@H](Cc1ccccc1)C(=O)N[C@@H](C)C(=O)O` [C15 (human)] (H-AGEDPHSFYFPGQFA-OH; N-terminus and C-terminus assumed) had an IC50 on ChemR23 of more than 10 µM. Besides, the “inhibition of newly synthesized RANTES (difference between the 6 and 15 hour time points)” value in test [1] (1 pM) is reported as “approximately 90%”. Moreover, the “decrease in IL-10” value in test [1] (C15 peptide treatment) is on record as approximately 25%. For the same molecule, in test [1] (setting [2]), the “percent inhibition of RANTES expression” value was 47% and the “percent inhibition of TNFα expression” value amounted to 61%. Also, the “inhibition of cytokine production/secretion in vitro” value in test [1] (within 15 hours) is listed as 40-60%.

At ChemR23, `CC(C)C[C@H](NC(=O)[C@H](Cc1ccccc1)NC(=O)[C@H](Cc1ccc(O)cc1)NC(=O)CNC(=O)[C@H](Cc1c[nH]cn1)NC(=O)[C@@H]1CCCN1C(=O)[C@H](CC(=O)O)NC(=O)[C@H](CCC(=O)O)NC(=O)CNC(=O)[C@H](C)N)C(=O)N1CCC[C@H]1C(=O)NCC(=O)N[C@@H](CCC(N)=O)C(=O)N[C@@H](Cc1ccccc1)C(=O)N[C@@H](C)C(=O)O` [mC15] (H-AGEDPHGYFLPGQFA-OH; N-terminus and C-terminus assumed) had an IC50 of more than 10 µM.

At ChemR23, `C[C@H](N)C(=O)NCC(=O)N[C@@H](CCC(=O)O)C(=O)N[C@@H](CC(=O)O)C(=O)N1CCC[C@H]1C(=O)N[C@@H](Cc1c[nH]cn1)C(=O)N[C@@H](CO)C(=O)N[C@@H](Cc1ccccc1)C(=O)N[C@@H](Cc1ccc(O)cc1)C(=O)N[C@@H](Cc1ccccc1)C(=O)N1CCC[C@H]1C(=O)NCC(=O)N[C@@H](CCC(N)=O)C(=O)N[C@@H](Cc1ccccc1)C(=O)N[C@@H](C)C(=O)N[C@@H](Cc1ccccc1)C(=O)N[C@@H](CO)C(=O)O` [C17 (human)] (H-AGEDPHSFYFPGQFAFS-OH; N-terminus and C-terminus assumed) yielded an IC50 of more than 10 µM. Further, in test [1] (1 μM), the “inhibition of cytokine production” value is listed as “did not exhibit any significant inhibition”.
